Reference: patent US10882860B2, “Treatment of osteoarthritis” (Samumed, LLC, priority 2015, dated 2021)
Marks after values point to notes of the source that are not given here.

Test system: moderate-to-severe symptomatic knee OA subjects
Assay: Phase 1 clinical study: safety and adverse events
Format: in vivo, human
Details: for AE(s) Reported - All / AE(s) Reported - Target knee, Arthralgia / AE(s) Reported - Target knee, Injection site bruising / AE(s) Reported - Target knee, Injection site pain / AE(s) Reported - Target knee, Joint injury / AE(s) Reported - Target knee, Joint stiffiiess / AE(s) Reported - Target knee, Joint swelling / AE(s) Reported - Target knee, Meniscus injury / DLT(s) Reported / SAE(s) Reported: single IA injection
Protocol: A Phase 1 study was conducted to evaluate the safety and tolerability of the compound of Formula (I) (Form 1) administered by intra-articular injection into a target knee joint of moderate-to-severe symptomatic OA subjects.
The study was a first-in-human, multicenter, 24-week, placebo-controlled, single-dose, dose-escalation safety study of a Wnt pathway inhibitor in subjects suffering from moderate to severe symptomatic knee OA. The sample size was 20 subjects (randomized 4:1, 16 active: 4 placebo) per dosing cohort. Inclusion criteria included: Age, 50-75 years; Western Ontario and McMaster Universities Arthritis Index (WOMAC) Total score, 36-72 (out of 96); Kellgren-Lawrence grade, 2 or 3; and a willingness to omit pain medication for 24 hours prior to pain assessments. Exclusion criteria included: BMI>40; and treatment with IA steroids within 2 months or HA derivatives within 6 months prior to injection. A full list of the inclusion and exclusion criteria for this study can be found on clinicaltrials.gov (NCT02095548).
The dosing sequence included suspension compositions of either 0.03 mg, 0.07 mg, or 0.23 mg of the compound of Formula (I) (Form 1) per 2 mL injection in a vehicle containing 0.5% carboxymethylcellulose sodium and 0.05% polysorbate 80 in pH 7.4 phosphate buffered saline. The placebo contained only the diluent of 0.5% carboxymethylcellulose sodium and 0.05% polysorbate 80 in pH 7.4 phosphate buffered saline. The subjects were given a single, intra-articular injection in the target knee on Treatment Day 1 and participated in a follow-up period of 24 weeks.
Safety, pharmacokinetics (PK), biomarker, and efficacy data were collected at baseline and during the 24-week follow-up period. Safety data included adverse events (AEs), concomitant medications, clinical laboratory sampling, medical history, vital signs, ECGs, hip bone density (DXA) analysis, qCT of the target knee, and evaluation of bone edema via MM. For PK data, samples were collected 0, 4, and 24 hours post dose, and at Weeks 4 and 12. Biomarker data included data for procollagen type 1 N-propeptide (P1NP), beta C-terminal telopeptide of type 1 collagen (βCTX), and cartilage oligomeric matrix protein (COMP). Efficacy data included measurements of WOMAC Total score, WOMAC Function and Pain subscores, pain VAS, Physician Global Assessment of Disease Activity, MM, and radiographs. Efficacy assessments were used to determine the percentage of OMERACT-OARSI “strict” responders. Exploratory analyses of efficacy outcomes were conducted using a baseline-adjusted repeated measures analysis of covariance (ANCOVA) in the Intention-to-Treat (ITT) population. The sponsor was unblinded after Week 12 for each cohort; site investigators remained blinded. All AEs reported in this study were […]. Investigator opinion regarding whether AEs were related to the compound of Formula (I) was also collected for informational purposes.

## CC(C)CC(=O)Nc1cncc(-c2ccc3[nH]nc(-c4nc5c(-c6cccc(F)c6)cncc5[nH]4)c3c2)c1 [compound of Formula (I)]
0.03 mg cohort
  Subjects Who Reported AE(s) [N(%)]: 9 (53%) N(%)
  Subjects Who Reported No AE(s) [N(%)]: 8 (47%) N(%)
  AE(s) Reported - All: 15
  AE(s) Reported - Target knee, Arthralgia: 1
  AE(s) Reported - Target knee, Injection site bruising: 0
  AE(s) Reported - Target knee, Injection site pain: 0
  AE(s) Reported - Target knee, Joint injury: 1
  AE(s) Reported - Target knee, Joint stiffiiess: 0
  AE(s) Reported - Target knee, Joint swelling: 0
  AE(s) Reported - Target knee, Meniscus injury: 0
  DLT(s) Reported: 0
  SAE(s) Reported: 0
0.07 mg cohort
  Subjects Who Reported AE(s) [N(%)]: 6 (37%) N(%)
  Subjects Who Reported No AE(s) [N(%)]: 10 (63%) N(%)
  AE(s) Reported - All: 11
  AE(s) Reported - Target knee, Arthralgia: 1
  AE(s) Reported - Target knee, Injection site bruising: 0
  AE(s) Reported - Target knee, Injection site pain: 2
  AE(s) Reported - Target knee, Joint injury: 0
  AE(s) Reported - Target knee, Joint stiffiiess: 0
  AE(s) Reported - Target knee, Joint swelling: 1
  AE(s) Reported - Target knee, Meniscus injury: 0
0.07 mg cohort, increased target knee pain and paroxysmal tachycardia
  DLT(s) Reported: 2*
0.07 mg cohort, paroxysmal tachycardia
  SAE(s) Reported: 1*
0.23 mg cohort
  Subjects Who Reported AE(s) [N(%)]: 7 (44%) N(%)
  Subjects Who Reported No AE(s) [N(%)]: 9 (56%) N(%)
  AE(s) Reported - All: 25
  AE(s) Reported - Target knee, Arthralgia: 1
  AE(s) Reported - Target knee, Injection site bruising: 1
  AE(s) Reported - Target knee, Injection site pain: 1
  AE(s) Reported - Target knee, Joint injury: 0
  AE(s) Reported - Target knee, Joint stiffiiess: 1
  AE(s) Reported - Target knee, Joint swelling: 1
  AE(s) Reported - Target knee, Meniscus injury: 1
  DLT(s) Reported: 0
  SAE(s) Reported: 0
16 of 77 AEs
  AEs considered related to study medication by the reporting investigator: 22%
27 of 49 exposed subjects
  exposed subjects who reported no AEs: 55%
Single IA injection of suspension formulated from Form 1, interim data
  overall safety and tolerability: safe, well-tolerated
